From paper PMC6887723, “Design and Synthesis of 4-(Heterocyclic Substituted Amino)-1H-Pyrazole-3-Carboxamide Derivatives and Their Potent Activity against Acute Myeloid Leukemia (AML)” (International Journal of Molecular Sciences, 2019)

Columns and labels:
[1] = system: phosphorylation of STAT5/AKT/ERK; assay: Western blot, phosphorylation of STAT5/AKT/ERK in MV4-11 cells; format: cell-based, human; conditions: MV4-11, 4 h, 1 μM
Procedure: Analysis of pFLT3, pSTAT5, pERK, pAKT, and pRb in vitro: to determine the levels of pFLT3, pSTAT5, pERK, pAKT, and pRb, cells were seeded in a 6-well cell culture plate at a density of 400,000 cells per well for MV4-11 in a total volume of 1800 μL and incubated overnight in medium containing 10% fetal bovine serum (Life Technologies, Rockville, MD, USA). Then 200 μL of serially diluted compounds were added to each well the next day. Cell lysates were harvested after 4 h and pFLT3, pSTAT5, pERK, pAKT, or pRb were quantified using assay kits for FLT3/Phospho-FLT3Tyr589/591, pSTAT5 (Tyr694)/total STAT5, pRb (Ser807)/total Rb (Nanjin keyGen Biotech Company, Nanjing, China) following the manufacturer’s protocols.

CDK2 = biological target: T1, CDK2 (Homo sapiens, UniProt P24941); assay: CDK2 kinase activity assay (Hot-Spot); format: biochemical; conditions: 10 μM ATP; mean ± SD, three independent experiments
T1 construct: purchased Reaction Biology Corp
Procedure: (§1) Activities of kinases were determined using Hot-SpotSM kinase assay which was performed by Reaction Biology Corp. (Malvern PA, USA) as described previously.

FLT3 = biological target: T2, FLT3 (Homo sapiens, UniProt P36888); assay: FLT3 kinase activity assay (Hot-Spot); format: biochemical; conditions: 10 μM ATP; mean ± SD, three independent experiments
T2 construct: purchased Reaction Biology Corp
T2 sequence (P36888 27-993): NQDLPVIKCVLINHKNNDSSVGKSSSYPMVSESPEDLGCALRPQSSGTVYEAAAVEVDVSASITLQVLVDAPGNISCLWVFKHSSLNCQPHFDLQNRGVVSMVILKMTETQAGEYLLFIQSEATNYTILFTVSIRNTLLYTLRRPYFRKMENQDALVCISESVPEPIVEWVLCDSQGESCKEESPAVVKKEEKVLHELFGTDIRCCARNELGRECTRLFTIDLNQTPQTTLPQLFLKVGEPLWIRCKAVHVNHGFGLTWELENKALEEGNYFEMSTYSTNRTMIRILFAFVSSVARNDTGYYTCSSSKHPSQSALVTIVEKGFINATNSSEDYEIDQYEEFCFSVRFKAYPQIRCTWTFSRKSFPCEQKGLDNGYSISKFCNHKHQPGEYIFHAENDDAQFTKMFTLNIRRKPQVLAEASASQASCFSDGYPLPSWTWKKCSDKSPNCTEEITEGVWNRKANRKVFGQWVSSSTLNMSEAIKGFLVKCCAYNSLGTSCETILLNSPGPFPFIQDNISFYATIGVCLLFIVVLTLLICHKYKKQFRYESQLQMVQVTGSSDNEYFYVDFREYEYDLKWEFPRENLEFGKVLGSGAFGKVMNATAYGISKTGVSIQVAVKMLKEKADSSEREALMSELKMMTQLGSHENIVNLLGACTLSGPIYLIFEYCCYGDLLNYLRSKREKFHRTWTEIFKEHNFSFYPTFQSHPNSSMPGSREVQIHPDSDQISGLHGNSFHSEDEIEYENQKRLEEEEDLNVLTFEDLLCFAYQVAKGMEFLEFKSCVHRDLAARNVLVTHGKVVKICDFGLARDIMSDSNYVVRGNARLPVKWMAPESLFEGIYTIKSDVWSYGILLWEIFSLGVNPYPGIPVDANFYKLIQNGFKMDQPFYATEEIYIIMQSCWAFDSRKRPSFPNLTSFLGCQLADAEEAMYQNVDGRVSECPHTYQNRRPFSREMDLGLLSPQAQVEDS
Procedure: as §1

FLT3 mutants = assay: Hot-Spot kinase profiling, FLT3 mutants together; format: biochemical; conditions: eight FLT3 mutants, bound for all; read-out: IC50 against FLT3 mutants
Procedure: as §1

melting point: 266 to 268 °C
IC50 (CDK2): 0.719 ± 0.064 nM
IC50 (FLT3): 0.089 ± 0.013 nM
IC50 (FLT3 mutants): < 5 nM
SMILES: O=C(Nc1ccc(N2CCNCC2)cc1)c1n[nH]cc1Nc1ncnc2sc3c(c12)CCC3 [Compound 8t]
phosphorylation of STAT5/AKT/ERK [1]: completely blocked
